Some test systems named below: SNB-19; DMS-114; HCT-116; RXF 393; LOX IMVI; U-251; UO-31; SF-539; EKVX; HCC 2998; CCRF-CEM; OVCAR-4; OVCAR-5; SNB-75; M19-MEL; NCI-H226; SK-MEL-5; RPMI-8226; SR.
What all share (assay): growth of human tumour cells (NCI), 48 h

These results are taken from ChEMBL document CHEMBL1201862, “PubChem BioAssay data set” (2004).

Molecules are shown by their SMILES.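 Interpolation was linear, between the two tested concentrations surrounding the appropriate level; five concentrations were tested over 48 hours in 96-well plates. GI50: concentration for 50% inhibition of growth.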 The source made the active and inactive calls. Cut-off read from the data, not from the text of the source: active = GI50 up to about 1.1 µM and inactive = higher. A value given as a limit tells only on which side of the number the result lay.

Consider `CCCCCN(CCCCC)C(=O)[C@@H](CCC(=O)OCc1ccccc1)NC(=O)c1cc2ccccc2[nH]1`, for which the GI50 was > 100 µM (inactive) with SNB-19; > 100 µM (inactive) in the assay with DMS-114; > 100 µM (inactive) in the assay on HCT-116; > 100 µM (inactive) in the assay with RXF 393; > 100 µM (inactive) with LOX IMVI; 6.22 µM (inactive) in the assay with U-251. Besides, the GI50 in the assay with UO-31, in the assay with SF-539, with EKVX, with HCC 2998, in the assay on CCRF-CEM and in the assay with OVCAR-4 was > 100 µM (inactive) in each case. The GI50 in the assay with OVCAR-5 and in the assay on SNB-75 was > 100 µM (inactive) throughout.

On to `CCOC(=O)CC1=N/C(=N/C(=N)N[N+](=O)[O-])SC1`, for which the GI50 in the assay with SNB-19, in the assay with HCT-116, in the assay on RXF 393, in the assay with LOX IMVI, in the assay with U-251 and with UO-31 was > 100 µM (inactive) throughout. For the same molecule, the GI50 in the assay on SF-539, with EKVX, in the assay on M19-MEL, in the assay on HCC 2998, in the assay with CCRF-CEM and in the assay on OVCAR-4 was > 100 µM (inactive) each time. Further, the GI50 in the assay with OVCAR-5, with NCI-H226, in the assay with SNB-75 and with SK-MEL-5 was > 100 µM (inactive) each time.

On to `CC1SC2=NC3=C(c4ccccc4C3=O)C(c3ccc(Br)cc3)N2C1=O` (stereo not given), for which the GI50 with SNB-19 is 38 µM (inactive); in the assay on DMS-114 it was 31.2 µM (inactive); with U-251, 35.5 µM (inactive); with UO-31, 8.47 µM (inactive); in the assay on RPMI-8226, 31.6 µM (inactive); in the assay on EKVX, 60 µM (inactive). Further, the GI50 in the assay on M19-MEL was 56.9 µM (inactive); with HCC 2998, 60.8 µM (inactive); in the assay on CCRF-CEM, 33.3 µM (inactive); in the assay with OVCAR-4 it was 41.4 µM (inactive); with OVCAR-5, > 100 µM (inactive); in the assay on NCI-H226 it was 23.2 µM (inactive). The GI50 was 24.5 µM (inactive) in the assay on SNB-75 and 41.2 µM (inactive) in the assay on SK-MEL-5.

On to `CC1(Br)CC2OC3(Br)C=CC(C)(O)C2(CC1=O)C3(C)C` (stereo not given), for which the GI50 in the assay on SNB-19 was > 100 µM (inactive); in the assay on DMS-114 it was > 100 µM (inactive); in the assay on HCT-116, > 92 µM (inactive); in the assay on LOX IMVI, > 100 µM (inactive); with U-251, > 100 µM (inactive); in the assay with UO-31, > 83.9 µM (inactive). Further, the GI50 in the assay with RPMI-8226 is 36.8 µM (inactive); with SF-539 it was > 100 µM (inactive); with EKVX it was > 100 µM (inactive); with HCC 2998 it was > 100 µM (inactive); in the assay on SR, 82.4 µM (inactive); in the assay on CCRF-CEM, 16 µM (inactive). Also, the GI50 in the assay with OVCAR-4 was > 100 µM (inactive); in the assay on OVCAR-5, > 100 µM (inactive); in the assay with NCI-H226 it was > 100 µM (inactive); with SNB-75 it was 64.6 µM (inactive); in the assay on SK-MEL-5, > 100 µM (inactive).

Consider `O=C1O[C@@H](c2ccccc2)C[C@H]1CN1CCOCC1`, for which the GI50 is 67 µM (inactive) with DMS-114; > 100 µM (inactive) in the assay with RXF 393; > 100 µM (inactive) in the assay on LOX IMVI; > 100 µM (inactive) in the assay on U-251; > 100 µM (inactive) with UO-31; 14.6 µM (inactive) in the assay on RPMI-8226. The GI50 in the assay on SF-539 is > 100 µM (inactive); in the assay with EKVX, > 100 µM (inactive); in the assay with HCC 2998 it was > 100 µM (inactive); with CCRF-CEM, 33.7 µM (inactive); in the assay on OVCAR-4, > 100 µM (inactive); in the assay on OVCAR-5 it was > 100 µM (inactive). Also, the GI50 with NCI-H226 was 43.6 µM (inactive); in the assay on SNB-75, 51.9 µM (inactive); with SK-MEL-5 it was > 100 µM (inactive).

As to `C#CC1(O)c2ccccc2C(=O)c2ccccc21`, the GI50 with SNB-19, in the assay on HCT-116, in the assay with RXF 393, with LOX IMVI, in the assay on U-251 and in the assay on SF-539 was > 100 µM (inactive) in each case. Besides, the GI50 in the assay on EKVX, with M19-MEL, with HCC 2998, in the assay with SR, in the assay on CCRF-CEM and in the assay on OVCAR-4 was > 100 µM (inactive) each time. Moreover, the GI50 in the assay on OVCAR-5 and in the assay on NCI-H226 was > 100 µM (inactive) each time.

Take `O=[N+]([O-])c1nccn1CC(O)c1ccc(F)cc1` (stereo not given): the GI50 in the assay on SNB-19, in the assay with DMS-114, in the assay with RXF 393, in the assay with LOX IMVI, in the assay on U-251 and with UO-31 was > 100 µM (inactive) throughout. Besides, the GI50 in the assay with RPMI-8226, in the assay on SF-539, in the assay on EKVX, with M19-MEL, in the assay on CCRF-CEM and in the assay on OVCAR-4 was > 100 µM (inactive) each time. The GI50 in the assay on OVCAR-5, with NCI-H226, in the assay on SNB-75 and with SK-MEL-5 was > 100 µM (inactive) in each case.

Turning to `O=C(Sc1sc(=S)sc1SC(=O)c1ccccc1)c1ccccc1`, the GI50 in the assay on SNB-19 was 37.1 µM (inactive); in the assay with DMS-114, > 100 µM (inactive); in the assay on HCT-116 it was 71.1 µM (inactive); in the assay on RXF 393, > 100 µM (inactive); in the assay with U-251, 28.8 µM (inactive); with RPMI-8226 it was > 100 µM (inactive). Moreover, the GI50 was 46.2 µM (inactive) with SF-539; 53.8 µM (inactive) in the assay on EKVX; 21.7 µM (inactive) in the assay with M19-MEL; 34.2 µM (inactive) in the assay with HCC 2998; > 100 µM (inactive) in the assay with CCRF-CEM; > 100 µM (inactive) in the assay with OVCAR-4. For the same molecule, the GI50 is 33.1 µM (inactive) in the assay on OVCAR-5, 30.3 µM (inactive) with SNB-75 and > 100 µM (inactive) with SK-MEL-5.

As to `COc1cc2c(c(OC)c1OC)-c1ccc(SC)c(=O)cc1[C@@H](NC(=O)c1cccc([N+](=O)[O-])c1)CC2`, the GI50 in the assay with HCT-116 was 0.0174 µM (active); in the assay on U-251 it was 0.0221 µM (active); in the assay with UO-31, 0.0516 µM (active); in the assay on RPMI-8226, 0.0208 µM (active); in the assay on SF-539, 0.0171 µM (active); in the assay on EKVX, 0.0386 µM (active). Besides, the GI50 with M19-MEL was 0.0296 µM (active); in the assay with HCC 2998, 0.0207 µM (active); in the assay with CCRF-CEM, 0.0301 µM (active); in the assay with OVCAR-4, 13.1 µM (inactive); in the assay on OVCAR-5, > 100 µM (inactive); in the assay on NCI-H226 it was < 0.01 µM (active). For the same molecule, the figures for the GI50 with SNB-75 and in the assay with SK-MEL-5 were 0.0264 µM (active) and 0.0179 µM (active), respectively.
